Tests used:
[1] = molecular target: T1, Solute carrier family 2, facilitated glucose transporter member 1 (Homo sapiens, UniProt P11166); experiment: Inhibition of human GLUT1 expressed in DLD1 cells assessed as ATP production co-incubated with 100 mM glucose for 16 hrs by CellTiter-Glo assay in presence of oxidative phosphorylation inhibitor rotenone; format: cell-based, DLD-1
T1 sequence (P11166 whole entry): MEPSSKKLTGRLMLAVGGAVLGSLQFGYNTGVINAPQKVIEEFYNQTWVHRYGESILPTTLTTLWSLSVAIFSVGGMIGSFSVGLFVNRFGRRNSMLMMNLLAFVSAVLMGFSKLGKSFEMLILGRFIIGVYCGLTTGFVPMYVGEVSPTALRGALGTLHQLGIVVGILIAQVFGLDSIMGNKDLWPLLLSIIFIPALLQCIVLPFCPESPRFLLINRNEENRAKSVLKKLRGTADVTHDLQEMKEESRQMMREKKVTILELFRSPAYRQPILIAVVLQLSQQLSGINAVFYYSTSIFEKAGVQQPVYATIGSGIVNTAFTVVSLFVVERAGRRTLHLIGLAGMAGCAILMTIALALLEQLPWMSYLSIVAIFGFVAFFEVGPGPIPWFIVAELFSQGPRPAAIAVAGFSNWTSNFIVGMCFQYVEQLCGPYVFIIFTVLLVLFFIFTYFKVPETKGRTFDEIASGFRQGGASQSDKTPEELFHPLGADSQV

[2] = molecular target: T2, Solute carrier family 2, facilitated glucose transporter member 2 (Homo sapiens, UniProt P11168); experiment: Inhibition of human GLUT2 expressed in CHO cells assessed as ATP production co-incubated with 30 mM fructose for 16 hrs by CellTiter-Glo assay in presence of oxidative phosphorylation inhibitor rotenone; format: cell-based
T2 sequence (P11168 whole entry): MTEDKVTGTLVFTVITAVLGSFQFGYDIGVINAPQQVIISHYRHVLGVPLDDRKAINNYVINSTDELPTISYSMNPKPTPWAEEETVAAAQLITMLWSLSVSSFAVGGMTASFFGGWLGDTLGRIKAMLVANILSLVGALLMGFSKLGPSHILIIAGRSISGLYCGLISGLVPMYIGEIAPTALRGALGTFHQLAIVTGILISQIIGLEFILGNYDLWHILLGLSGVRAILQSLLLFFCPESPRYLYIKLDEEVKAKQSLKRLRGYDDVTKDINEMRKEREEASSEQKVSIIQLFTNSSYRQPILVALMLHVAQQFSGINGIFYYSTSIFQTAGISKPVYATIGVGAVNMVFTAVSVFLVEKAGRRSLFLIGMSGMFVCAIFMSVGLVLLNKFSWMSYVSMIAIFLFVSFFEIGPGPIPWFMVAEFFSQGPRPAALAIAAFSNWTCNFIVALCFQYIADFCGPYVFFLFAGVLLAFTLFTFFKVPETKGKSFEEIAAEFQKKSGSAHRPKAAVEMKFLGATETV

[3] = molecular target: T3, Solute carrier family 2, facilitated glucose transporter member 3 (Homo sapiens, UniProt P11169); experiment: Inhibition of human GLUT3 expressed in GLUT1 knock-out DLD1 cells assessed as ATP production co-incubated with 300 mM glucose for 16 hrs by CellTiter-Glo assay in presence of oxidative phosphorylation inhibitor rotenone; format: cell-based, DLD-1
T3 sequence (P11169 whole entry): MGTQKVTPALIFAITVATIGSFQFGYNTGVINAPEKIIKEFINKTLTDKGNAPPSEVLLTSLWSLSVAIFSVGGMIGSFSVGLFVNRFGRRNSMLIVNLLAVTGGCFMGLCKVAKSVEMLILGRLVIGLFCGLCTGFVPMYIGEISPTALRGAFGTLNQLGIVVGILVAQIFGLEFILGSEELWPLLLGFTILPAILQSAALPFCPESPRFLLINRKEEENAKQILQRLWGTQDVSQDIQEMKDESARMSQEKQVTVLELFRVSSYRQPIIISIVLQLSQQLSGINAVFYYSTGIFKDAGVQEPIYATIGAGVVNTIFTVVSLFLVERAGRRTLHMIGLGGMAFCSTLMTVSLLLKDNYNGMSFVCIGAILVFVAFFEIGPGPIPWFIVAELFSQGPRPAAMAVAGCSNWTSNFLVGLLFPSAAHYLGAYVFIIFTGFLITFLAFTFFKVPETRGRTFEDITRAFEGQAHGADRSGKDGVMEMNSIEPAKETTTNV

[4] = Intrinsic clearance in rat hepatocytes; format: ADME, cell-based, Hepatocyte; conditions: read-out: CLH (converted)
[5] = Intrinsic clearance in human liver microsomes; format: ADME; conditions: read-out: CLH (converted)

Row | Compound | IC50 [1] | IC50 [2] | IC50 [3] | CLint scaled [4] | CLint scaled [5]
1 | COc1ccccc1N1CCN(c2ncnc3c2ncn3-c2ccccc2)CC1 | 0.027 µM | 3.5 µM | 0.064 µM | – | –
2 | COc1ccncc1N1CCN(c2ncnc3c2cnn3-c2ccccc2)CC1 | 0.009 µM | 0.51 µM | 0.06 µM | – | –
3 | COc1ccccc1N1CCN(c2ncnc3c2cnn3-c2ccccc2)CC1C (stereo unspecified) | 0.014 µM | 1.4 µM | 0.12 µM | – | –
4 | Fc1cccc(N2CCN(c3ncnc4c3cnn4-c3ccccc3)CC2)c1 | 0.29 µM | 1.21 µM | 0.54 µM | – | –
5 | COc1ccc(C(N)=O)cc1N1CCN(c2ncnc3c2cnn3-c2ccccc2)CC1 | 0.005 µM | 0.1 µM | 0.037 µM | – | –
6 | COc1ccccc1N1CCN(c2ncnc3c2[nH]c(=O)n3-c2ccccc2)CC1 | 0.053 µM | > 10 µM | 0.63 µM | – | –
7 | COc1ccccc1N1C[C@H]2C[C@@H]1CN2c1ncnc2c1cnn2-c1ccccc1 | > 10 µM | > 10 µM | > 10 µM | – | –
8 | COc1ccccc1N1CCN(c2ccnc3c2cnn3-c2ccccc2)CC1 | 0.3 µM | 0.6 µM | 4 µM | – | –
9 | COc1ccccc1N1CCN(c2ncnc3c2cnn3-c2cc(F)cc(F)c2)CC1 | 0.008 µM | > 10 µM | 0.09 µM | – | –
10 | COc1ccc(F)cc1N1CCN(c2ncnc3c2cnn3-c2ccccc2)CC1 | 0.001 µM | > 10 µM | 0.01 µM | 2.6 L/h/kg | 0.37 L/h/kg
11 | COc1ccccc1N1CCC(c2ncnc3c2cnn3-c2ccccc2)CC1 | 0.47 µM | – | 1.2 µM | – | –
12 | COc1ccccc1N1C[C@@H]2C[C@H]1CN2c1ncnc2c1cnn2-c1ccccc1 | 2.3 µM | > 10 µM | 4.1 µM | – | –
13 | COc1ccccc1N1CCN(c2ncnc3c2cnn3-c2cccc(C#N)c2)CC1 | 0.033 µM | – | 0.35 µM | – | –
14 | COc1ccc(C#N)cc1N1CCN(c2ncnc3c2cnn3-c2ccccc2)CC1 | 0.02 µM | > 10 µM | 0.05 µM | – | –
15 | COc1ccc(N2CCN(c3ncnc4c3cnn4-c3ccccc3)CC2)cc1 | 1.77 µM | 8.7 µM | 1.77 µM | – | –
16 | COc1cccc(F)c1N1CCN(c2ncnc3c2cnn3-c2ccccc2)CC1 | 0.11 µM | 1.2 µM | 1.6 µM | – | –
17 | COc1cccc(N2CCN(c3ncnc4c3cnn4-c3ccccc3)CC2)c1 | 0.18 µM | 1.48 µM | 0.32 µM | – | –
18 | COc1ccccc1C1CCN(c2ncnc3c2cnn3-c2ccccc2)CC1 | 1.9 µM | > 10 µM | > 10 µM | – | –
19 | COc1ccccc1N1CCN(c2ncnc3c2cnn3-c2ccc(C#N)cc2)CC1 | 0.017 µM | > 10 µM | 0.2 µM | – | –
20 | N#Cc1ccccc1N1CCN(c2ncnc3c2cnn3-c2ccccc2)CC1 | 1.81 µM | 5.99 µM | 2.05 µM | – | –
21 | COc1ccccc1N1CCN(c2ncnc3c2cnn3-c2ccncc2)CC1 | 1.2 µM | 4.4 µM | 1.6 µM | – | –
22 | COc1ccccc1N1CCN(c2ncnc3c2cnn3-c2cc(F)ccc2OC)CC1 | 0.03 µM | 0.88 µM | 0.32 µM | – | –
23 | COc1ccccc1N1CCN(c2ncnc3c2cnn3-c2ccccc2)C(C)C1 (stereo unspecified) | 0.12 µM | 2.5 µM | 0.48 µM | – | –
24 | COc1ccccc1N1CCN(c2nnnc3c2cnn3-c2ccccc2)CC1 | > 10 µM | > 10 µM | > 10 µM | – | –
25 | COc1cccc(-n2ncc3c(N4CCN(c5ccccc5OC)CC4)ncnc32)c1 | 0.2 µM | 0.9 µM | 0.17 µM | – | –
26 | COc1cc(F)ccc1N1CCN(c2ncnc3c2cnn3-c2ccccc2)CC1 | 0.01 µM | > 10 µM | 0.04 µM | – | –
27 | OC1CCCCC1N1CCN(c2ncnc3c2cnn3-c2ccccc2)CC1 (stereo unspecified) | > 10 µM | > 10 µM | > 10 µM | – | –

From ChEMBL document CHEMBL3779893, “Identification of novel GLUT inhibitors” (Bioorg Med Chem Lett, 2016)
